Legend:
[1] = target: T1, human muscarine receptor M3 (hM3) (Homo sapiens, UniProt P20309); experiment: Inhibitory activity against human muscarine receptor M3 (aequorin luminescence, CHO cells, acetylcholine challenge); format: cell-based; details: IC50 for hM3 receptor, CHO cells stably expressing hM3 and apo-Aequorin; acetylcholine chloride 112.92 nM; luminescence over 20 seconds
T1 construct: host or cells: CHO cells
Description: CHO cells (PerkinElmer, ES-212-AF) that stably express human muscarine receptor M3 (hM3) and apo-Aequorin were cultured at 37° C., 5% CO2 in Ham's F12 media (Invitrogen 12500-062) containing 10% fetal bovine serum (FBS) (Gibico 10099-141), 400 μg/mL G418 (sigma G5013) and 250 μg/mL Zeocin (Invivogen ant-zn-5p), until a confluency of 90% to 100% was reached. Cells were separated by rinsing with PBS/5 mM EDTA, collected by centrifugation, re-suspended in phenol red-free Ham's F12 media (Invitrogen 12500-062) containing 0.1 BSA (BOVOGEN BSAS 100), and counted. The cell concentration was adjusted to 1×10^6 cells/ml. 15 ml of the cell suspension was added to a 50-ml centrifuge tube, to which Coelenterazine-h (Promega 52011) was added to a final concentration of 5 μM. The tube was wrapped with a tin foil to shade light, and incubated on a rotary shaker at 20° C. for 4 hours. The cells were diluted with a phenol red-free/0.1% BSA Ham's F12 medium to a final concentration of 5.0×10^5 cells/ml, placed on a rotary shaker in low speed rotation, and incubated at room temperature for at least 1 hour. The compounds of the Examples were formulated with DMSO into 10 mM stock solutions, diluted in series with a phenol red-free/0.1% BSA Ham's F12 media (log(M): −7, −8, −9, −10, −11), and added to a 96-well plate at 50 μl/well. 50 μl cell suspension was further added to each well (25,000 cells/well) and incubated for 15 min at room temperature. The 96-well plate was placed in a microplate reader (Perkin Elmer, Envision), and a 50 μl solution of acetylcholine chloride (Sigma A6625) was added to each well at a concentration of 112.92 nM (hM3) with a microplate reader sample injector. The luminescence was recorded over 20 seconds, and IC50 values were calculated and analyzed by Origin 7.5.

[2] = target: T2, human β2-adrenergic receptor (hβ2) (Homo sapiens, UniProt P07550); experiment: Agonist activity on human β2-adrenergic receptor (LANCE Ultra cAMP Assay, CHO cells); format: cell-based
T2 construct: host or cells: CHO cells
T2 sequence (P07550 whole entry): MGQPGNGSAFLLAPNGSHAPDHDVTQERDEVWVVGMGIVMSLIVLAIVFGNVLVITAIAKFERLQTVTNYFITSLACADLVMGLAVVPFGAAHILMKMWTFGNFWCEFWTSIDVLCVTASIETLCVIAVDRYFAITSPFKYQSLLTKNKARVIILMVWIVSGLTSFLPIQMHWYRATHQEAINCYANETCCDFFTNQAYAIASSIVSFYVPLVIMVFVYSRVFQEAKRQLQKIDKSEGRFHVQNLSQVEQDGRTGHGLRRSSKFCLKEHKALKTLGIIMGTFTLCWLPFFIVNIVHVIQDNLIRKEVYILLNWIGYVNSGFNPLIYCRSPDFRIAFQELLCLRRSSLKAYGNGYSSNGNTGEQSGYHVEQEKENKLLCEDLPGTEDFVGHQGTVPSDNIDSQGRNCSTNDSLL
Description: The agonist activity of the compounds of the Examples on the human adrenergic receptor was measured by the LANCE Ultra cAMP Assay.
CHO cells (PerkinElmer, ES-034-AF) that stably express human adrenergic receptor (hβ2) were cultured at 37° C., 5% CO2 in MEM-alpha media (Invitrogen 12561-056) containing 10% fetal bovine serum (FBS) (Gibico 10099-141) and 250 μg/ml Zeocin (InvivoGen ant-zn-5p), until a confluency of 90% to 100% was reached. Then the agonism on cAMP was tested by using a LANCE Ultra cAMP Assay kit (PerkinElmer TRF0263). Cells were separated with PBS/5 mM EDTA, collected by centrifugation, re-suspended in Stimulation Buffer (1×HBSS, 5 mM HEPES, 0.5 mM IBMX, 0.1% BSA, pH7.4), and adjusted to a cell concentration of 6×10^5 cells/ml. The compounds of the Examples were formulated with DMSO into 10 mM stock solutions, diluted in series with Stimulation Buffer, and added to a 384-well plate at 5 μl/well. 5 μl cell suspension was further added to each well (3,000 cells/well), incubated for 30 min at room temperature, then 5 μl of a 4×Eu-cAMP trace working solution was added to each well, and then 5 μl of a 4× Ulight-anti-cAMP working solution was added to each well, followed by incubation at room temperature for 1 hour. The 384-well plate was detected for TR-FRET with a microplate reader (Perkin Elmer, Envision), and EC50 values were calculated and analyzed by Origin 7.5.

T1 sequence (P20309 whole entry): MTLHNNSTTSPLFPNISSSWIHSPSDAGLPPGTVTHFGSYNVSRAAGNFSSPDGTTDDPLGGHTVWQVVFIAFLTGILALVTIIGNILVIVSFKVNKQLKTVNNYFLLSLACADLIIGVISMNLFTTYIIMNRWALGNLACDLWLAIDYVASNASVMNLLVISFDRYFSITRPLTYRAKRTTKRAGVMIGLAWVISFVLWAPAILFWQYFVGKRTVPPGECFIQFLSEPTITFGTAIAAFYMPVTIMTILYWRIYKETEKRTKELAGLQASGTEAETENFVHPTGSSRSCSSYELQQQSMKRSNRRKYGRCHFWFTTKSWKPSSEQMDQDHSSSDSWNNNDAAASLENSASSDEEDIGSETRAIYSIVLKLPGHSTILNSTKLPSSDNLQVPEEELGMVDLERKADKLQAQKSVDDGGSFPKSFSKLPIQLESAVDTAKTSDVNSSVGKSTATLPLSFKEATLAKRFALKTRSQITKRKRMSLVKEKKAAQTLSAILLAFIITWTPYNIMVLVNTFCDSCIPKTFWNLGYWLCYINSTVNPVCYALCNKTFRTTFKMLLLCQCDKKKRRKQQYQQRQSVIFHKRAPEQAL

O=C(OC1CC2(CCN(CCCn3nnc4cc(CNC[C@H](O)c5ccc(O)c6[nH]c(=O)ccc56)ccc43)CC2)C1)C(O)(c1cccs1)C1CCCC1 (single isomer, unassigned) [Isomer 1 of Compound 9, ditrifluoroacetic acid] was tested, and the IC50 [1] was 2.47 nM.
O=C1COc2c([C@@H](O)CNCc3ccc4c(c3)nnn4CCCN3CCC4(CC3)CC(OC(=O)C(O)(c3cccs3)c3cccs3)C4)ccc(O)c2N1 [Compound 2, [7-[3-[5-[[[(2R)-2-hydroxy-2-(5-hydroxy-3-oxo-4H-1,4-benzoxazin-8-yl)ethyl]amino]methyl]benzotriazol-1-yl]propyl]-7-azaspiro[3.5]nonan-2-yl] 2-hydroxy-2,2-bis(2-thienyl)acetate; ditrifluoroacetic acid] gave an EC50 [2] of 1.3 nM and an IC50 [1] of 0.59 nM.
In the case of O=C(OC1CC2(CCN(CCCn3c(=O)sc4cc(CNC[C@H](O)c5ccc(O)c6[nH]c(=O)ccc56)ccc43)CC2)C1)C(O)(c1cccs1)c1cccs1 [Compound 7, [7-[3-[6-[[[(2R)-2-hydroxy-2-(8-hydroxy-2-oxo-1H-quinolin-5-yl)ethyl]amino]methyl]-2-oxo-1,3-benzothiazol-3-yl]propyl]-7-azaspiro[3.5]nonan-2-yl] 2-hydroxy-2,2-bis(2-thienyl)acetate; ditrifluoroacetic acid], the EC50 [2] is reported as 4 nM and the IC50 [1] is reported as 1.29 nM.
In the case of O=C(OC1CC2(CCN(CCCn3nnc4cc(CNC[C@H](O)c5ccc(O)c6[nH]c(=O)ccc56)ccc43)CC2)C1)C(O)(c1cccs1)c1cccs1 [Compound 1, [7-[3-[5-[[[(2R)-2-hydroxy-2-(8-hydroxy-2-oxo-1H-quinolin-5-yl)ethyl]amino]methyl]benzotriazol-1-yl]propyl]-7-azaspiro[3.5]nonan-2-yl] 2-hydroxy-2,2-bis(2-thienyl)acetate], the EC50 [2] is reported as 4.45 nM and the IC50 [1] is reported as 0.43 nM.
Work on O=CNc1cc([C@@H](O)CNCc2ccc3c(c2)nnn3CCCN2CCC3(CC2)CC(OC(=O)C(O)(c2cccs2)c2cccs2)C3)ccc1O [Compound 3, [7-[3-[5-[[[(2R)-2-(3-formamido-4-hydroxy-phenyl)-2-hydroxy-ethyl]amino]methyl]benzotriazol-1-yl]propyl]-7-azaspiro[3.5]nonan-2-yl] 2-hydroxy-2,2-bis(2-thienyl)acetate; ditrifluoroacetic acid] yielded an IC50 [1] of 0.22 nM.
Molecule O=C(OC1CC2(CCN(CCCn3nnc4cc(CNC[C@H](O)c5ccc(O)c6[nH]c(=O)ccc56)ccc43)CC2)C1)C(O)(c1ccccc1)C1CCCC1 (single isomer, unassigned) [Isomer 2 of Compound 4] has an IC50 [1] of 1.77 nM.
O=C(OC1CC2(CCN(CCCn3nnc4cc(CNC[C@H](O)c5ccc(O)c6[nH]c(=O)ccc56)ccc43)CC2)C1)C(O)(c1ccccc1)C1CCCC1 (stereo partly drawn) [Compound 4, [7-[3-[5-[[[(2R)-2-hydroxy-2-(8-hydroxy-2-oxo-1H-quinolin-5-yl)ethyl]amino]methyl]benzotriazol-1-yl]propyl]-7-azaspiro[3.5]nonan-2-yl] 2-cyclopentyl-2-hydroxy-2-phenyl-acetate; ditrifluoroacetic acid] was tested, and the IC50 [1] was 2.46 nM.
O=C(OC1CC2(CCN(CCCn3nnc4cc(CNC[C@H](O)c5ccc(O)c(CO)c5)ccc43)CC2)C1)C(O)(c1cccs1)c1cccs1 [Compound 13, [7-[3-[5-[[[(2R)-2-hydroxy-2-[4-hydroxy-3-(hydroxymethyl)phenyl]ethyl]amino]methyl]benzotriazol-1-yl]propyl]-7-azaspiro[3.5]nonan-2-yl] 2-hydroxy-2,2-bis(2-thienyl)acetate; ditrifluoroacetic acid] was tested, and the IC50 [1] was 0.31 nM.
Work on O=C(OC1CC2(CCN(CCCn3nnc4cc(CNC[C@H](O)c5ccc(O)c6[nH]c(=O)sc56)ccc43)CC2)C1)C(O)(c1cccs1)c1cccs1 [Compound 12, [7-[3-[5-[[[(2R)-2-hydroxy-2-(4-hydroxy-2-oxo-3H-1,3-benzothiazol-7-yl)ethyl]amino]methyl]benzotriazol-1-yl]propyl]-7-azaspiro[3.5]nonan-2-yl] 2-hydroxy-2,2-bis(2-thienyl)acetate; ditrifluoroacetic acid] yielded an EC50 [2] of 0.47 nM and an IC50 [1] of 0.52 nM.
Work on O=C(OC1CC2(CCN(CCCn3nnc4cc(CNC[C@H](O)c5ccc(O)c6[nH]c(=O)ccc56)ccc43)CC2)C1)C(O)(c1cccs1)C1CCCC1 (single isomer, unassigned) [Isomer 2 of Compound 9, ditrifluoroacetic acid] yielded an IC50 [1] of 2.76 nM.
In the case of O=C(OC1CC2(CCN(CCCn3nnc4cc(CNC[C@H](O)c5ccc(O)c6[nH]c(=O)ccc56)ccc43)CC2)C1)C(O)(c1ccccc1)C1CCCC1 (single isomer, unassigned) [Isomer 1 of Compound 4], the IC50 [1] is reported as 2.36 nM.
Work on O=C(OC1CC2(CCN(CCCn3c(=O)oc4cc(CNC[C@H](O)c5ccc(O)c6[nH]c(=O)ccc56)ccc43)CC2)C1)C(O)(c1cccs1)c1cccs1 [Compound 8, [7-[3-[6-[[[(2R)-2-hydroxy-2-(8-hydroxy-2-oxo-1H-quinolin-5-yl)ethyl]amino]methyl]-2-oxo-1,3-benzoxazol-3-yl]propyl]-7-azaspiro[3.5]nonan-2-yl] 2-hydroxy-2,2-bis(2-thienyl)acetate; ditrifluoroacetic acid] yielded an EC50 [2] of 6.13 nM and an IC50 [1] of 0.65 nM.
With CN(CCCn1nnc2cc(CNC[C@H](O)c3ccc(O)c4[nH]c(=O)ccc34)ccc21)C(=O)CCN1CCC2(CC1)CC(OC(=O)C(O)(c1cccs1)c1cccs1)C2 [Compound 11, [7-[3-[3-[5-[[[(2R)-2-hydroxy-2-(8-hydroxy-2-oxo-1H-quinolin-5-yl)ethyl]amino]methyl]benzotriazol-1-yl]propyl-methyl-amino]-3-oxo-propyl]-7-azaspiro[3.5]nonan-2-yl] 2-hydroxy-2,2-bis(2-thienyl)acetate; ditrifluoroacetic acid] the IC50 [1] was 0.46 nM.

Reference: patent publication US20190185461A1, “B[…] B2-RECEPTOR AGONIST ACTIVITY AND M3-RECEPTOR ANTAGONIST ACTIVITY AND MEDICAL USE THEREOF” (Sichuan Haisco Pharmaceutical Co., Ltd., priority 2015, published 2019)
